Assay results taken from patent US8552065B2, “Biarylamide derivative and compositions containing the derivative as an active ingredient” (Catholic University Industry Academy Cooperation Foundation, priority 2010, dated 2013).

Assays:
[1] = tested on: Melan-a cells, that is, mouse melanocytes; assay: Melanin production inhibition by biarylamide derivatives in melan-a cells (Example 2-2); type: cell-based; conditions: 30 mM derivative, 10 μl per day for 3 days, final concentration 300 μM, absorbance 400 nm
Description: Melan-a cells, that is, mouse melanocytes, were inoculated onto a 24-well culture plate (10^5 cells), and cultured in RPMI1640 medium including fetal bovine serum (FBS) 10% and 200 nM of phorbol 12-myristate 13-acetate (TPA) for 24 hours. Then, in each well, 990 μl of RPMI1640 medium including FBS 10% and 200 nM TPA was treated with 30 mM of the inventive biarylamide derivative (10 μl per day for 3 days) (final concentration 300). The last day of treatment, the cells were washed with Phosphate buffered saline (PBS) three times, lysed with 1 ml of 1M sodium hydroxide (NaOH) solution, and measured using ELISA Leader at absorbance of 400 nm.

[2] = tested on: Melan-a cells, that is, mouse melanocytes; assay: Melanin production inhibition by A3/B5 in melan-a cells, with cell viability (Example 3); type: cell-based; conditions: A3/B5 treatment per day for 3 days, final concentration 1, 10, and 25 (unit not given), FIG. 1A
Description: (§1) In order to examine the effect of A3/B5 on melanin inhibition, the degree of melanin production was analyzed using melan-a cells, that is, mouse melanocytes and human normal melanocytes. Melanocytes were inoculated onto a 24-well culture plate (10^5 cells) and cultured in RPMI1640 medium including fetal bovine serum (FBS) 10% and 200 nM of phorbol 12-myristate 13-acetate (TPA) for 24 hours. Then, in each well, 990 μl of RPMI1640 medium including FBS 10% and 200 nM TPA was treated with
(§2) 100, 1000, and 2500 of A3/B5 (10 μl per day for 3 days) (final concentration 1, 10, and 25). The last day of treatment, the cells were washed with Phosphate buffered saline (PBS) three times, lysed with 1 ml of 1M sodium hydroxide (NaOH) solution, and measured using ELISA Leader at absorbance of 400 nm. Additionally, in order to determine if the inhibition of melanin production is caused by apoptosis, cell viability was examined under the same condition as described above. For this, The last day of treatment, the cells were washed with phosphate buffered saline (PBS) three times, and the cells in each well were stained with 200 μl of Crystal Violet (0.1%, EtOH 10%, PBS 89.9%) for 5 minutes, washed with phosphate buffer, lysed in 1 ml of ethanol solution, and measured at absorbance of 590 nm. Further, this experiment was performed for human normal melanocytes in the same manner.

human normal melanocytes = assay: Melanin production inhibition by A3/B5 in human normal melanocytes (Example 3); type: cell-based; conditions: A3/B5 treatment per day for 3 days, final concentration 1, 10, and 25 (unit not given), FIG. 1B
Description: as §1, §2

[3] = tested on: TRP-2 (Tyrosinase related protein-2, Dopachrom tautomerase); assay: TRP-2 expression in melan-a cells by western blotting (Example 4); type: cell-based, mouse; conditions: 50 uM
Description: In order to examine the effects of A3/B5 on TRP-2 expression, mouse melanocytes (melan-a) were cultured in RPMI1640 medium including fetal bovine serum (FBS) 10% and 200 nM of phorbol 12-myristate 13-acetate (TPA) for 24 hours, and treated with A3/B5 at a concentration of 50 uM (per day for 3 days). In order to determine the expression level of TRP-2 over 3 days, each test group was lysed in RIPA buffer solution containing 2 mM EDTA, 137 mM NaCl, 20 mM Tris-HCl (pH 8.0), 1 mM sodium vanadate, 10 mM NaF, 1 mM PMSF (phenylmethanesulfonyl fluoride), 1% NP-40, 10% glycerol and a protease inhibitor cocktail, and protein was separated by SDS-PAGE electrophoresis using 10% acrylamide gel. This was transferred to a nylon membrane, and TRP-2 protein was analyzed by anti TRP-2 antibody (santacuz, US) and anti-Rabbit IgG horse Radish Peroxidase (HRP) conjugation antibody (1;10000, zymed) as a secondary antibody. This was detected by Chemiluminescence reagent kit (ECL, Amersham, US) and then imaged using RAS 3000 Imaging system (FUJI film, Japan) as an image analyzer. Further, in a case where the cells were treated with A3B5 once on the first day of 3 consecutive days, the expression level of TRP-2 over 3 days was also analyzed in the same manner as described above.

[4] = tested on: A375 human melanoma cell lines; assay: A375 melanoma cell growth inhibition, BrdU cell proliferation assay (Example 5); type: cell-based; conditions: respective concentrations, 48 hours, absorbance 450 nm, FIG. 3
Description: A375 cells were inoculated onto a 96 well plate (3×10^3 cells), and cultured in DMEM containing fetal bovine serum (FBS) 10% for 16 hours, and then treated with A3/B5 at respective concentrations, and cultured for 48 hours. Then, by using BrdU cell proliferation assay kit (Roche, Germany), the degree of cell growth inhibition by A3/B5 was examined.

[5] = tested on: B16F10 mouse melanoma cell; assay: B16F10 melanoma cell proliferation in hairless mouse model (Example 6); type: in vivo; conditions: hairless mice; 100 μl of 1 mM A3/B5 injected into the cell region for 5 days; sectioned on 6th day; FIG. 4
Description: In order to examine the effect of A3/B5 on the inhibition of melanoma cell proliferation, into the back of 5 hairless mice, at both sides of subcutaneous tissues, 5×10^5 B16F10 cells (B16F10 mouse melanoma cell) were injected. Then, 48 hours later, into the region injected with the cells, 100 μl of A3/B5 diluted with phosphate buffer solution to a concentration of 1 mM, and 100 μl of phosphate buffer solution as a control, were injected for 5 days, respectively. On the 6th day, the injected cell region was sectioned and its size and weight were analyzed.

SMILES	Reduction rate of melanin(%) [1]	also measured
Cc1ccc(C(=O)Nc2cccc(C)c2)cc1 [A1/B3, 4-methyl-N-m-tolylbenzamide]	32.6%	–
CCc1ccc(C(=O)Nc2cccc(C)c2)cc1 [A1/B4, 4-ethyl-N-m-tolylbenzamide]	23.3%	–
COc1ccc(C(=O)Nc2cccc(C)c2)cc1 [A1/B6, 4-methoxy-N-m-tolylbenzamide]	24.3%	–
Cc1cccc(NC(=O)c2ccc(C#N)cc2)c1 [A1/B7, 4-cyano-N-m-tolylbenzamide]	34.2%	–
Cc1ccc(NC(=O)c2ccc(C)cc2)cc1 [A2/B3, 4-methyl-N-p-tolylbenzamide]	8.6%	–
Cc1ccc(C(=O)Nc2cc(C)cc(C)c2)cc1 [A3/B3, N-(3,5-dimethylphenyl)-4-methylbenzamide]	35.8%	–
CCc1ccc(C(=O)Nc2cc(C)cc(C)c2)cc1 [A3/B4, N-(3,5-dimethylphenyl)-4-ethylbenzamide]	36.5%	–
COc1cccc(C(=O)Nc2cc(C)cc(C)c2)c1 [A3/B5, N-(3,5-dimethylphenyl)-3-methoxybenzamide]	48.7%	reduction in melanin production content of melanocytes with respect to cell viability, as compared to a non-treated group [2]: about 40%; reduction in melanin production content of melanocytes with respect to cell viability, as compared to a non-treated group (human normal melanocytes): about 20%; expression level of TRP-2 protein as compared to non-treated group ([3]; treated daily for 3 days, FIG. 2A): significant reduction; expression level of TRP-2 protein as compared to non-treated group ([3]; treated only once on the first day of 3 consecutive days, FIG. 2B): significant reduction; inhibition on growth of A375 melanoma cells [4]: inhibition on growth of A375 melanoma cells was increased; size of injected B16F10 cell region versus phosphate buffer control [5]: smaller; weight of injected B16F10 cell region versus phosphate buffer control [5]: smaller
Cc1cc(C)cc(NC(=O)c2ccc(C#N)cc2)c1 [A3/B7, 4-cyano-N-(3,5-dimethylphenyl)benzamide]	50.6%	–
COc1ccccc1NC(=O)c1ccccc1C [A4/B1, N-(2-Methoxyphenyl)-2-methylbenzamide]	17.7%	–
COc1ccc(OC)c(NC(=O)c2ccccc2C)c1 [A8/B1, N-(2,5-Dimethoxyphenyl)-2-methylbenzamide]	45.5%	–
CC(=O)c1ccc(NC(=O)c2ccc(C)cc2)cc1 [A10/B3, N-(4-acetylphenyl)-4-methylbenzamide]	10.4%	–
CCCCOc1ccc(NC(=O)c2ccccc2C)cc1 [A11/B1, N-(4-Butoxyphenyl)-2-methylbenzamide]	8.9%	–
COC(=O)c1ccccc1NC(=O)c1ccc(C)cc1 [A12/B3, methyl 2-(4-methylbenzamido)benzoate]	9.4%	–
CCc1ccc(C(=O)Nc2ccccc2C(=O)OC)cc1 [A12/B4, methyl 2-(4-ethylbenzamido)benzoate]	9.4%	–
COC(=O)c1ccccc1NC(=O)c1ccc(OC)cc1 [A12/B6, methyl 2-(4-methoxybenzamido)benzoate]	39.0%	–
COC(=O)c1ccc(NC(=O)c2cccc(C)c2)cc1 [A14/B2, Methyl 4-(3-methylbenzamido)benzoate]	30.6%	–
